Reference: patent publication US8710102B2, “Use of beta-adrenoceptor antagonists for the manufacture of a medicament of the treatment of disorders of the outer retina” (Novartis AG, priority 1999, dated 2014)

Columns and labels:
bFGF mRNA = experiment: Retinal bFGF mRNA upregulation, Northern blot after single IP injection; settings: single IP injection 20 mg/kg; retina harvested after 12 hours in the dark; bFGF/18S
CNTF mRNA = experiment: Retinal CNTF mRNA upregulation, Northern blot after single IP injection; settings: single IP injection 20 mg/kg; retina harvested after 12 hours in the dark; CNTF/18S
[1] = Light damage paradigms: prevention of light-induced functional or morphological changes; assay type: in vivo; settings: applicant's light damage paradigms
rabbit inner retina = settings: in vitro; literature; cited from earlier work
Male Sprague Dawley rats [2] = experiment: Photo-oxidative (blue-light) induced retinopathy, systemic IP dosing, ERG; settings: for Protection of retina function against light-induced retinal degeneration: 20 and 40 mg/kg IP; for Persistence of protection after a 4-week recovery period: IP dosing
Source text: The purpose of Experiment 1 was to determine if selective β-adrenoceptor antagonists, in particular betaxolol (racemic), levobetaxolol (S-isomer), and betaxolol (R-isomer) are neuroprotective and can rescue retinal cells from a photo-oxidative induced retinopathy. The purpose of Experiment 2 was to determine the dose-dependent efficacy of timolol, a potent non-selective β1- and β2-blocker, in this photo-oxidative stress model. Male Sprague Dawley rats were randomly assigned to drug or vehicle experimental groups. Rats received three intraperitoneal (IP) injections of either vehicle or drug at 48, 24, and 0 hours prior to a 6-hour light exposure to spectrally filtered blue light (˜220 fc). Control rats were housed in their home cage under normal cyclic light exposure. Control rats were not dosed with either vehicle or drug. The ERG is a non-invasive clinical measurement of the electrical response of the eye to a flash of light. The a-wave and b-wave are two components of the ERG that are diagnostic of retinal function. The a-wave reflects outer retina function and is generated by interactions between photoreceptor and RPE while the b-wave reflects inner retina function, particularly on-bipolar cells. […] Changes in the a-wave amplitude or latency are diagnostic of outer retina pathology. The ERG was recorded after a five day recovery period from dark-adapted anesthetized rats (ketamine-HCl, 75 mg/Kg; xylazine, 6 mg/Kg). The eye's electrical response to a flash of light was elicited by viewing a ganzfeld. ERGs to a series of light flashes increasing in intensity were digitized to analyze temporal characteristics of the waveform and response voltage-log intensity relationship.

chick retinal cells = settings: in vitro; literature; cited from earlier work
Male Sprague Dawley rats [3] = settings: 0.5% topical ocular b.i.d.; for Protection of retinal function compared to vehicle dosed rats: two drops per eye, 17 days before and 2 days after light exposure, ERG five days after
Description: The purpose of this experiment was to determine the degree of retinal protection that could be measured in rats following topical ocular dosing. Levobetaxolol (0.5%), (racemic) betaxolol (0.5%), and vehicle were evaluated in the photic retinopathy model. Induction of photochemical lesions and evaluation of retinal function with the ERG were performed as described in the photo-oxidative induced retinopathy paradigm used in Example 1.
Male Sprague Dawley rats were randomly assigned to either a vehicle dosed group (N=10), (racemic) betaxolol (0.5%) dosed group (N=10) or levobetaxolol (0.5%) dosed group (N=10). Rats were dosed topical ocular (b.i.d.) with two drops per eye. Rats were pre-dosed for 17 days prior to light exposure and dosed an additional two days after the light exposure. Control rats (N=4) were housed in their home cage under normal cyclic light exposure.

[4] = test system: rat ischemia/reperfusion injury model; settings: literature; cited from earlier work
cortical cultures = settings: in vitro; literature; cited from earlier work
[5] = test system: P23H mutant rhodopsin transgenic rats
Description: The P23H rhodopsin mutated transgenic rat has a specific rhodopsin mutation that has been identified in subsets of patients with RP. This degeneration is characterized by a slow degeneration of retinal photoreceptors and marked reduction in the electroretinogram. As in light damage, photoreceptor loss is primarily through an apoptotic process.
At the time of weaning, rats are randomly assigned to either a drug or vehicle group. Rats were dosed (oral gavage) with vehicle or levobetaxolol (40 mg/kg,) every other day. […] ERGs were recorded as described in Example 1.

Brc1c(NC2=NCCN2)ccc2nccnc12 [brimonidine]
Increase in bFGF mRNA expression (bFGF mRNA): 14 fold | CNTF mRNA expression upregulation, factor compared to background expression (CNTF mRNA): not upregulated

Cc1c(C)c2c(c(C)c1O)CC[C@@](C)(CCC[C@H](C)CCC[C@H](C)CCCC(C)C)O2 [alpha-tocopherol]
Effectiveness in preventing light-induced functional or morphological changes [1]: ineffective

CC(C)NCC(O)COc1ccc(CCOCC2CC2)cc1 (racemic) [betaxolol (racemic), betaxolol]
Changes in GABA immunoreactivity following glucose-oxygen deprivation (rabbit inner retina): partially inhibited | Maximum a-wave response amplitude, fold higher than vehicle dosed rats (Male Sprague Dawley rats [2]; 20 mg/kg IP at 48, 24, 0 h before 6-hour blue light, 5-day recovery): 1.9 fold | Maximum a-wave response amplitude, fold higher than vehicle dosed rats (Male Sprague Dawley rats [2]; 40 mg/kg IP at 48, 24, 0 h before 6-hour blue light, 5-day recovery): 2.1 fold | Protection of retina function against light-induced retinal degeneration (Male Sprague Dawley rats [2]; 5-day recovery): dose-dependent protection | Kainate induced elevation of intracellular calcium (chick retinal cells): prevent | ERG response amplitudes vs vehicle dosed rats (Male Sprague Dawley rats [3]): higher but not significantly different | Protection of retinal function compared to vehicle dosed rats (Male Sprague Dawley rats [3]): No significant protection | ERG b-wave deficit after ischemia/reperfusion [4]: protected | Glutamate-induced release of lactate dehydrogenase (cortical cultures): partially prevented

Fc1ccc(C(c2ccc(F)cc2)N2CCN(C/C=C/c3ccccc3)CC2)cc1 [flunarizine]
Effectiveness in preventing light-induced functional or morphological changes [1]: moderately effective

CC(C)NCC(O)COc1ccc(CCOCC2CC2)cc1 (stereo not drawn) [Betaxolol (R-isomer), betaxolol]
Protection of retina function against light-induced retinal degeneration (Male Sprague Dawley rats [2]; 5-day recovery): Partial but significant protection | ERGs, % of normal (Male Sprague Dawley rats [2]; 20 or 40 mg/kg IP): approximately 64% | Persistence of protection after a 4-week recovery period (Male Sprague Dawley rats [2]): persisted

COCCOC(=O)C1=C(C)NC(C)=C(C(=O)OC(C)C)C1c1cccc([N+](=O)[O-])c1 (stereo not shown) [nimodipine]
Effectiveness in preventing light-induced functional or morphological changes [1]: no effect

CC(C)NC[C@H](O)COc1ccc(CCOCC2CC2)cc1 [levobetaxolol]
ERG amplitude relative to vehicle-dosed rats (Male Sprague Dawley rats [2]; 20 mg/kg IP, 5-day recovery): twice | ERG amplitudes, % of normal (Male Sprague Dawley rats [2]; 20 mg/kg IP, 5-day recovery): 69% | Protection of the retinal response to a flash of light (Male Sprague Dawley rats [2]; 40 mg/kg IP, 5-day recovery): Complete protection | Protection of retina function against light-induced retinal degeneration (Male Sprague Dawley rats [2]; 5-day recovery): significant protection | Persistence of protection after a 4-week recovery period (Male Sprague Dawley rats [2]): persisted | Outer retinal function, % better than vehicle dosed rats ([5]; 40 mg/kg oral every other day, 6-month old rats): 32% | Loss of retinal function compared to vehicle dosed rats ([5]; 40 mg/kg oral gavage every other day, 3- and 6-month old rats): significantly attenuated | Increase in bFGF mRNA expression (bFGF mRNA): 13 fold | Amelioration of photic induced retinopathy (retinal function vs control rats) (Male Sprague Dawley rats [3]): completely to ameliorated | Protection of retinal function compared to vehicle dosed rats (Male Sprague Dawley rats [3]): significant protection | CNTF mRNA expression upregulation, factor compared to background expression (CNTF mRNA): 2.3
